From paper PMC4832243, “Discovery of Potent VEGFR-2 Inhibitors based on Furopyrimidine and Thienopyrimidne Scaffolds as Cancer Targeting Agents” (Scientific Reports, 2016)

Tests used:
c-Src = c-Src (Homo sapiens, UniProt P12931); assay: In vitro multiple-kinase inhibition assay, c-Src; type: biochemical
Experimental: (§1) In vitro multiple-kinase inhibition assay. […] Kinase enzymatic activity of the tested compounds was evaluated against a reference kinase inhibitor at 10 μM (Table 2).
(§2) The multiple kinases activity at single dose concentration of 10 μM was performed, c-Kit, c-Raf, c-Src, RET served as the enzyme source. […] Kinase-Glo Plus Luminescence kinase assay kit (Promega#V3772), ADP-Glo Luminescence assay kit was used for c-kit assay (Supplementary). […]
(§3) mM MgCl2, 0.1 mg/ml BSA, 1 mM DTT, 10 µM ATP, Kinase substrate and VEGFR. After the enzymatic reaction, 50 µl of Kinase-Glo Plus Luminescence kinase assay solution (Promega) was added to each reaction and incubate the plate for 5 minutes at room temperature.
(§4) Luminescence signal was measured using a BioTek Synergy 2 microplate reader. VEGFR activity assays were performed in duplicate at each concentration.
(§5) The luminescence data were analyzed using the computer software, Graphpad Prism. The difference between luminescence intensities in the absence of VEGFR (Lut) and in the presence of VEGFR (Luc) was defined as 100 % activity (Lut – Luc). Using luminescence signal (Lu) in the presence of the compound, % activity was calculated as:
(§6) % activity = {(Lut - Lu)/(Lut - Luc)}×100%, where Lu= the luminescence intensity in the […]
(§7) IC50 determination for inhibitor against VEGFR was calculated. The values of % activity versus a series of compound concentrations (1 nM - 10 nM - 100 nM - 1 µM - 10 µM) were then […]
(§8) or Hill coefficient. The IC50 value was determined by the concentration causing a half-maximal […]
(§9) In vitro multiple-kinase inhibition assay
(§10) Luminescence signal was measured using a BioTek Synergy 2 microplate reader […]
(§11) The luminescence data were analyzed using the same computer software and the same protocol

VEGFR-2 (KDR) = target: T1, VEGFR-2 (KDR) (Homo sapiens, UniProt P35968); assay: In vitro VEGFR-2 tyrosine kinase activity (Kinase-Glo Plus luminescence, BPS Bioscience); type: biochemical; details: for IC50: 5 concentrations 1 nM - 10 μM
T1 construct: purchased BPS Bioscience 40301

RET = RET (Homo sapiens, UniProt P07949); assay: In vitro multiple-kinase inhibition assay, RET; type: biochemical
Experimental: as §1, §2, §3, §4, §5, §6, §7, §8, §9, §10, §11

[1] = test system: HUVEC umbilical vein endothelial cells; assay: In vitro HUVEC anti-proliferative assay (alamarBlue); type: cell-based; details: Homo sapiens, HUVEC proliferation at 10 μM, 72 hours; for activity at 10 µM: read-out: % Cell growth; for inhibition at 10 µM: read-out: % Cell inhibition
c-Raf = c-Raf (Homo sapiens, UniProt P04049); assay: In vitro multiple-kinase inhibition assay, c-Raf; type: biochemical
Experimental: as §1, §2, §3, §4, §5, §6, §7, §8, §9, §10, §11

c-Kit = c-Kit (Homo sapiens, UniProt P10721); assay: In vitro multiple-kinase inhibition assay, c-Kit (ADP-Glo); type: biochemical
Experimental: as §1, §2, §3, §4, §5, §6, §7, §8, §9
The assay was performed using the same conditions for VEGFR-2 activity assay (section 5.2.1.1). The assays for c-Kit was an exception, it was performed using ADP-Glo Kinase assay reagents (Promega). It measures kinase activity by quantitating the ADP amount produced from the enzymatic reaction. The luminescent signal from the assay is correlated with the amount of ADP present and is directly correlated with the amount of kinase activity. Other conditions are same to the previous section except the final reaction volume was reduced to 25 µl. After the 40 min kinase reaction at 30 °C, 25 µl of ADP-Glo reagent was added and incubated for 45 min at room temperature followed by another 50 min incubation with 50 µl of Kinase detection mixture.
as §10, §11

phospho-VEGFR-2 (Tyr951) = phospho-VEGFR-2 (Tyr951) (Mus musculus, UniProt P35918); assay: Immunohistochemistry of EAC solid tumor sections, phospho-VEGFR-2; details: oral treatment of EAC-bearing mice
CD31 and CD34 (% MVD) = assay: Immunohistochemistry of EAC solid tumor sections, microvessel density (CD31, CD34); details: oral treatment of EAC-bearing mice
[2] = test system: Ehrlich ascites carcinoma (EAC) solid tumor; assay: In vivo anticancer activity, EAC solid tumor murine model; set-up: species or system Swiss albino mice; details: for TGI (%): once daily for 8 consecutive days; for Histopathological examination of EAC tumor sections (necrosis): hematoxylin-eosin, 40x
Experimental: Animals. Female Swiss albino mice weighing 15–20 g were used in the present study. They were obtained from the animal breeding laboratory, National Cancer Institute (NCI), Cairo University, Egypt. Animals were kept in our animal facility, faculty of pharmacy, Ain Shams university at 25 ± 2 °C and a relative humidity of 40–45% with alternative day and night cycles of 12 h each. Animals had free access to pellet food and water ad libitum. Standard diet pellets (El-Nasr, Abu Zaabal, Egypt) contained not less than 20% protein, 5% fiber, 3.5% fat, 6.5% ash and a vitamin mixture. Animal care and experiments were conducted in accordance with the protocols approved by the Ethics Research Committee, Faculty of Pharmacy, Ain Shams University, following the Institutional Animal Care and Use Committee guidelines.
Tumor cells preparation and transplantation. Ehrlich ascites carcinoma (EAC) cells were obtained from NCI, Cairo University, Egypt. EAC cells were maintained in the ascitic form in Swiss albino mice by intraperitoneal transplantation of each mouse every 10 days. Ascitic fluid was drawn from tumor-bearing mice at the log phase (7–8th day of tumor bearing) of the tumor cells. The freshly drawn fluid was diluted with ice-cold sterile isotonic saline. 200 μl tumor cell suspension containing 2 × 10^6 tumor cells were then subcutaneously injected in each mouse.
Experimental design. Swiss albino mice were divided into six groups (n = 6 per group).
Evaluation of effectiveness. Tumor growth curve was drawn according to the change in tumor volume from first day of treatment (day 0) till day 7. Longest and shortest diameters of the solid tumor were monitored using a digital vernier caliper. Tumor volume (TV) of each animal was calculated using the following formula: […]
Tumor growth inhibition (TGI) was calculated as follows.
RTV = (Tumor volume at the day of measurement)/Tumor volume at the initial day.
Histopathological Examination
thickness by slidge microtome.
graded ethanol solutions.

active caspase 3 = assay: Immunohistochemistry of EAC solid tumor sections, active caspase 3; details: oral treatment of EAC-bearing mice
[3] = Toxicity: vital organs' indices and histopathology in EAC solid tumor bearing mice; type: in vivo, Swiss albino mice; details: for Brain Index / Heart Index / Kidney Index / Liver Index: mean ± SD (n = 6); for Histopathological examination of liver, kidney, heart and brain samples: 10 mg/kg, EAC solid tumor bearing mice (40x)
[4] = test system: VEGF-induced vascular permeability (Evans Blue extravasation); assay: Miles vascular permeability assay; set-up: species or system mice; details: in vivo; 10 mg/kg (Fig. 15)
Experimental: Miles Vascular Permeability Assay. One to two days prior to the experiment, mice were shaved to expose the skin. Mice were anesthetized with intra-peritoneal injection of Avertin. A sterile solution of 1% Evans Blue (EB) in PBS was prepared and 100 μl was injected IV into the tail vein, using a needle (small gauge, 27–30) at a 10–15 degree angle. The animals were then left for (30–60) min. VEGF (50 μl of 1 ng/μl) and 50 μl of PBS with 0.05% gelatin were injected intradermally using a 30-gauge needle into the skin overlying the back. After 20 min, the animals were sacrificed by cervical dislocation that is recommended to limit significant interference with vascular permeability. The skin was opened, exposed and representative pictures were taken to assess the intensity of EB […]. The Formamide/EB mixture was centrifuged and supernatant absorbance was measured at 600 nm (Shimadzu Spectrophotometer, UV-1601; Japan). extravasation was calculated as ng EB per mg tissue.

VEGFR-2 = details: read-out: VEGFR-2 IC50 of pyrrolo[3,2-d]pyrimidine derivative (III); cited from earlier work
[5] = test system: stem cell factor receptor (c-KIT); details: cited from earlier work
RET tyrosine kinase = target: RET tyrosine kinase; set-up: method as in PMID 16507829; details: cited from earlier work
[6] = test system: platelet-derived growth factor receptor-B (PDGFR-B); details: cited from earlier work
[7] = target: fms-related tyrosine kinase 3 receptor (FLT3); details: cited from earlier work
wild-type b-Raf = details: read-out: wild-type b-Raf IC50; cited from earlier work

Sequence of c-Src (P12931 whole entry, species assumed): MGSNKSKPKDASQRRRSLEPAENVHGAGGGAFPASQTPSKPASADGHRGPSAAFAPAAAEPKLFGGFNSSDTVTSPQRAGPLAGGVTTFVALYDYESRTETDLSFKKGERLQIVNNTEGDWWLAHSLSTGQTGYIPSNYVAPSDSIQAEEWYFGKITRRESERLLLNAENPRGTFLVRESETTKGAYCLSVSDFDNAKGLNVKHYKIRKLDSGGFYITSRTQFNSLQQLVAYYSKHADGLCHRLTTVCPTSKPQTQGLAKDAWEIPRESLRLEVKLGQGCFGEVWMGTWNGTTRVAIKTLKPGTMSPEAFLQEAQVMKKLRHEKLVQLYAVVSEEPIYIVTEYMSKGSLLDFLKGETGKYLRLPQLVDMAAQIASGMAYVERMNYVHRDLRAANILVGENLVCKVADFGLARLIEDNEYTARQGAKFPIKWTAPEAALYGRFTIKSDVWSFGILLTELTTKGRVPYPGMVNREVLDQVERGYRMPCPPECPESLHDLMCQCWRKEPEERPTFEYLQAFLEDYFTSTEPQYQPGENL
T1 sequence (P35968 20-1356): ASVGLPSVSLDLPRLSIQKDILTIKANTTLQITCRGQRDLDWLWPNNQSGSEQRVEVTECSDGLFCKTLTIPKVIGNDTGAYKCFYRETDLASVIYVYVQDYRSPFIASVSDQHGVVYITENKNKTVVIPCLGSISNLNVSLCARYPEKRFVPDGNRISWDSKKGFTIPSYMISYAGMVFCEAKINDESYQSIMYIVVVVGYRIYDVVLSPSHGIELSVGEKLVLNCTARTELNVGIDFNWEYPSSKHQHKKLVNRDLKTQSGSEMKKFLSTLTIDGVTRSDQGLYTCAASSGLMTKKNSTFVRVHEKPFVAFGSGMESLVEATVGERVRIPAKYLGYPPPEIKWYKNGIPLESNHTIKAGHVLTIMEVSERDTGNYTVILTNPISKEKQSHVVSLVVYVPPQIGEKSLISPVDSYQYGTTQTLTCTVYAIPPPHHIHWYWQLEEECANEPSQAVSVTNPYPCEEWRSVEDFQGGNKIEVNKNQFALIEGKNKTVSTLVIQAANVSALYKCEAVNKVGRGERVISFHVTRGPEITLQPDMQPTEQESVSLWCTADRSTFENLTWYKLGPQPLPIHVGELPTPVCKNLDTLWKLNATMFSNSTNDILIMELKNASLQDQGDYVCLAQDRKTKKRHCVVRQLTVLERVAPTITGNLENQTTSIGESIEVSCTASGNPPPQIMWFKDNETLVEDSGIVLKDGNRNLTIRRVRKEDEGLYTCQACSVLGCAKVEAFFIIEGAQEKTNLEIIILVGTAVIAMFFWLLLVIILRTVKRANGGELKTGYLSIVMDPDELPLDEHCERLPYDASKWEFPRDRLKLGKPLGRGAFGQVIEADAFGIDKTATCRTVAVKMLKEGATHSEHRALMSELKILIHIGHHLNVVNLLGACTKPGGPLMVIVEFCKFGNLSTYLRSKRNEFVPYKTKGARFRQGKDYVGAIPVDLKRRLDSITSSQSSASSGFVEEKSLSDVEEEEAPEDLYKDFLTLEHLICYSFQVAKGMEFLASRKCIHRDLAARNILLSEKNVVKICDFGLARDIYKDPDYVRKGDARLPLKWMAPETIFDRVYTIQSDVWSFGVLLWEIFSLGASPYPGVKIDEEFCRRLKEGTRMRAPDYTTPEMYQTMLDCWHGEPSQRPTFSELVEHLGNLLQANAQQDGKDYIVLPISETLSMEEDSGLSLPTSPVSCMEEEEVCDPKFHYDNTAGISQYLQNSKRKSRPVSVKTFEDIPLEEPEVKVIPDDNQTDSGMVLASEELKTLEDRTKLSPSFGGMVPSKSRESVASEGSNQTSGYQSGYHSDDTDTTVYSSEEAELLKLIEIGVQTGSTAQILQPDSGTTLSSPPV
Sequence of c-Raf (P04049 whole entry, species assumed): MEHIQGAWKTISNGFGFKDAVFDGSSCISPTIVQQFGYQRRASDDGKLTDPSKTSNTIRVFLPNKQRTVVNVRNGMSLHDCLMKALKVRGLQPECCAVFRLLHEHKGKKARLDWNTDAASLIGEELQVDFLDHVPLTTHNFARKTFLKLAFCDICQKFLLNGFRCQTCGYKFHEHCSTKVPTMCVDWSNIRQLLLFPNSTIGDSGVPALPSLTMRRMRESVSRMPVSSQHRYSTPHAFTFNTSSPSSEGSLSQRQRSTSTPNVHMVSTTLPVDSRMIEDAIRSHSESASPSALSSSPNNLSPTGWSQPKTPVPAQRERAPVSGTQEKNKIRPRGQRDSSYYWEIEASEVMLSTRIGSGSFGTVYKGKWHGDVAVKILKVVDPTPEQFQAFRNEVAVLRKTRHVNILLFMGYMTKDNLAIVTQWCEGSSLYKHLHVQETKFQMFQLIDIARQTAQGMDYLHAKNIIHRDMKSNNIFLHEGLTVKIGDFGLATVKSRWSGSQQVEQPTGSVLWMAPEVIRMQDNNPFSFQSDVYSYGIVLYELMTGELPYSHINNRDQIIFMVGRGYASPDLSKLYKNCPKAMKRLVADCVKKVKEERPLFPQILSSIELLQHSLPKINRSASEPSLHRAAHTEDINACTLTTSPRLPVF
Sequence of RET (P07949 29-1114, species assumed): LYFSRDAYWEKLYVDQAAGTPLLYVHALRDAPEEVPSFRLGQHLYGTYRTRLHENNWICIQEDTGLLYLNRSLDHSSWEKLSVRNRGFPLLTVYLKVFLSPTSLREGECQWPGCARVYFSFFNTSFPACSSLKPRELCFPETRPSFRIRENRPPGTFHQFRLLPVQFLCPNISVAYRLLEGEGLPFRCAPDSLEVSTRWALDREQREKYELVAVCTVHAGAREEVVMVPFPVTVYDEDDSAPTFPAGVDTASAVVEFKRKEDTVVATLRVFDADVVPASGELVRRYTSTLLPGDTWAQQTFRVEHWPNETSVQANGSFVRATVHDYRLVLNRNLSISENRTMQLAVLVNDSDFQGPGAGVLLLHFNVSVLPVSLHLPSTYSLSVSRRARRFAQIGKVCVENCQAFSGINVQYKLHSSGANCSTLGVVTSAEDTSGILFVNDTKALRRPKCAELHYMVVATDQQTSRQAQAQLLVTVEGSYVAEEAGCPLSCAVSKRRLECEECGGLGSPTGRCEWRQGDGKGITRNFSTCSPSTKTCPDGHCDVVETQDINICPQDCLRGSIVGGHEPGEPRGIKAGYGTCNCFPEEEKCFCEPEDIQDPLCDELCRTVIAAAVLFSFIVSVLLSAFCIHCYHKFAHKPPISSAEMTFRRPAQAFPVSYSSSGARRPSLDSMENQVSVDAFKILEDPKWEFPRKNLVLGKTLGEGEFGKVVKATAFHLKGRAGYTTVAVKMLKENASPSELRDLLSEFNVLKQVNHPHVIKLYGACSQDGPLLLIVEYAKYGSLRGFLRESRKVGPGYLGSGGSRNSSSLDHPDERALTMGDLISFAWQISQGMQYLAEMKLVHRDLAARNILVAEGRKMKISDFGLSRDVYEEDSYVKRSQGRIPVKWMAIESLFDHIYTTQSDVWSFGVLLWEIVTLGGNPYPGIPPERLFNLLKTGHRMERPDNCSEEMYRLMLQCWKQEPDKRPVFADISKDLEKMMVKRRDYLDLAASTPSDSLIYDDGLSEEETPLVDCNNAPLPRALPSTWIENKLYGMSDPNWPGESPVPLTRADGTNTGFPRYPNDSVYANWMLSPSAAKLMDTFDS
Sequence of c-Kit (P10721 26-976): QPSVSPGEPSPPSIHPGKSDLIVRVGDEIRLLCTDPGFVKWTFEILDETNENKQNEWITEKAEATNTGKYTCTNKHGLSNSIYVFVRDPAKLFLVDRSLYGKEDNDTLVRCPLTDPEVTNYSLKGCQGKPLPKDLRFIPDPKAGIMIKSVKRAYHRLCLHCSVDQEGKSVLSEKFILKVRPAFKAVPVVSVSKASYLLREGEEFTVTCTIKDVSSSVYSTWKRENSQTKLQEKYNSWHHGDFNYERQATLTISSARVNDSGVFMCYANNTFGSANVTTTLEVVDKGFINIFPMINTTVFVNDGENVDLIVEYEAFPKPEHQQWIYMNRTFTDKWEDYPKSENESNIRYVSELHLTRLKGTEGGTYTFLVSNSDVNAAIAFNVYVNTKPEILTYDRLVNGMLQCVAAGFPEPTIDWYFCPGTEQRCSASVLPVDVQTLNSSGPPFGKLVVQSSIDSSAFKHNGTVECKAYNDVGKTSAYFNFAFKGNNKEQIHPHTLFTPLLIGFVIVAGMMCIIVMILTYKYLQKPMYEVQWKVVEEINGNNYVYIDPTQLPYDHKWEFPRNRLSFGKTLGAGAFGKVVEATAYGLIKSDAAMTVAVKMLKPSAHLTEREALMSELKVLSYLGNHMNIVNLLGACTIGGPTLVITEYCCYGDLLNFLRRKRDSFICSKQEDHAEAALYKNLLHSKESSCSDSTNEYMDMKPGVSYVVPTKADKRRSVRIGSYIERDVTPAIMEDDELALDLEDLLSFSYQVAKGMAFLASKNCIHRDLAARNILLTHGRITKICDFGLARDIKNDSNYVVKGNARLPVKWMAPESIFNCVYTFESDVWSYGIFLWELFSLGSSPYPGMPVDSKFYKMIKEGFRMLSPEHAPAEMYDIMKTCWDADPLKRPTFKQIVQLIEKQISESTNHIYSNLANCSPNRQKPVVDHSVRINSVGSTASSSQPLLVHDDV

Q: Which inhibition at 10 µM (c-Src) does the source give for `CCOC(=O)c1c(C)oc2ncnc(Oc3ccc(NC(=O)Nc4ccc(C)c(Cl)c4)cc3)c12` [Compound 16e] here?
A: 1%

Q: And the IC50 (VEGFR-2 (KDR))?
A: 122 nM

Q: And the inhibition at 10 µM (VEGFR-2 (KDR); single dose concentration of 10 μM)?
A: > 70%

Q: And the inhibition at 10 µM (RET)?
A: 84%

Q: And the activity at 10 µM [1]?
A: 88.9%

Q: What about the inhibition at 10 µM [1] of the same compound?
A: 11.1%

Q: And the inhibition at 10 µM (c-Raf)?
A: 53%

Q: And the inhibition at 10 µM (c-Kit)?
A: 72%

Q: Which inhibition at 10 µM (c-Src) does the source give for `Cc1ccc(NC(=O)Nc2ccc(Oc3ncnc4sc5c(c34)CCCC5)cc2)cc1Cl` [Compound 21e] here?
A: 6%

Q: And the IC50 (VEGFR-2 (KDR))?
A: 21 nM

Q: What about the “VEGFR-2 phosphorylation in EAC solid tumor” value (phospho-VEGFR-2 (Tyr951)) of the same compound?
A: decreased VEGFR-2 phosphoryaltion

Q: And the inhibition at 10 µM (RET)?
A: 91%

Q: What about the “%MVD in EAC solid tumor” value (CD31 and CD34 (% MVD)) of the same compound?
A: reduction of %MVD

Q: What about the activity at 10 µM [1] of the same compound?
A: 54%

Q: What about the inhibition at 10 µM [1] of the same compound?
A: 46%

Q: What about the inhibition at 10 µM (c-Raf) of the same compound?
A: 71%

Q: What about the “Tumor Index” value ([2]; 5 mg/kg/day po, 8 consecutive days, mean ± SD, n = 6) of the same compound?
A: 0.041 ± 0.007

Q: And the “TGI (%)” value ([2]; 5 mg/kg/day po)?
A: 79.1%

Q: And the “Histopathological examination of EAC tumor sections (necrosis)” value ([2]; 5 mg/kg)?
A: moderate diffuse necrosis

Q: What about the “TGI (%)” value ([2]; 10 mg/kg/day po) of the same compound?
A: 82.7%

Q: What about the “Histopathological examination of EAC tumor sections (necrosis)” value ([2]; 10 mg/kg) of the same compound?
A: severe necrosis in a wide area

Q: And the “Active caspase 3 levels in EAC solid tumor” value (active caspase 3)?
A: increased active caspase 3 levels

Q: What about the “Brain Index” value ([3]; 5 mg/kg/day po) of the same compound?
A: 0.0167 ± 0.002

Q: And the “Heart Index” value ([3]; 5 mg/kg/day po)?
A: 0.0044 ± 0.0013

Q: What about the “Kidney Index” value ([3]; 5 mg/kg/day po) of the same compound?
A: 0.012 ± 0.002

Q: What about the “Liver Index” value ([3]; 5 mg/kg/day po) of the same compound?
A: 0.048 ± 0.006

Q: And the “Brain Index” value ([3]; 10 mg/kg/day po)?
A: 0.0174 ± 0.002

Q: What about the “Heart Index” value ([3]; 10 mg/kg/day po) of the same compound?
A: 0.0056 ± 0.0009

Q: What about the “Kidney Index” value ([3]; 10 mg/kg/day po) of the same compound?
A: 0.013 ± 0.002

Q: What about the “Liver Index” value ([3]; 10 mg/kg/day po) of the same compound?
A: 0.057 ± 0.007

Q: What about the “Histopathological examination of liver, kidney, heart and brain samples” value [3] of the same compound?
A: without any histopathological alterations in liver, kidney and brain

Q: What about the “Toxicity (overall statement)” value ([3]; oral, 5 and 10 mg/kg/day for 8 consecutive days) of the same compound?
A: did not show any noticeable toxicity

Q: What about the “Antiangiogenic effect in Miles vascular permeability assay” value [4] of the same compound?
A: confirmed the antiangiogenic effects

Q: And the inhibition at 10 µM (c-Kit)?
A: 64%

Q: Which IC50 (VEGFR-2) does the source give for `Cn1ccc2ncnc(Oc3ccc(NC(=O)Nc4cccc(C(F)(F)F)c4)c(F)c3)c21` [III] here?
A: 6.2 nM

Q: With `CNC(=O)c1cc(Oc2ccc(NC(=O)Nc3ccc(Cl)c(C(F)(F)F)c3)cc2)ccn1.Cc1ccc(S(=O)(=O)O)cc1` [Sorafenib p-toluenesulfonate, sorafenib p-toluenesulfonate, reference compound] as the compound, how does the “TGI (%)” value ([2]; 10 mg/kg/day po) read?
A: 80.8%

Q: What does the source list for `CNC(=O)c1cc(Oc2ccc(NC(=O)Nc3ccc(Cl)c(C(F)(F)F)c3)cc2)ccn1` [Sorafenib]?
A: IC50 [5]: 68 nM; IC50 (RET tyrosine kinase): 50 nM; IC50 [6]: 57 nM; inhibition at 1 µM (c-Raf; read-out: Inhibition %, c-Raf, reference inhibitor): 92%; IC50 [7]: 33 nM; IC50 (wild-type b-Raf): 25 nM; Histopathological examination of EAC tumor sections (necrosis) ([2]; 10 mg/kg): wide severe necrosis; Histopathological examination of liver, kidney, heart and brain samples [3]: Degenerative changes were found in the hepatocytes and hippocampus

Q: For `CN[C@@H]1C[C@H]2O[C@@](C)([C@@H]1OC)n1c3ccccc3c3c4c(c5c6ccccc6n2c5c31)C(=O)NC4` [Staurosporine, reference compound], which inhibition at 1 µM (c-Src; read-out: Inhibition %, c-Src, reference inhibitor) is on record?
A: 98%
